{"source": "patent US20050101595A1", "about": "“N-containing cycloalkyl-substituted amino-thiazole derivatives and pharmaceutical compositions for inhibiting cell proliferation and methods for their use” (PFIZER INC., priority 2003, published 2005)", "key": {"[1]": {"target": "CDK2/Cyclin A (Homo sapiens, UniProt P24941)", "test": "Inhibition of CDK2/Cyclin A Retinoblastoma Kinase Activity", "assay_type": "biochemical", "conditions": "for Ki: apparent Ki, CDK2/proteolyzed cyclin A, Rb fragment substrate, 25 μM ATP", "procedure,_shortened": "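Baculovirus-expressed CDK2 complexed with proteolyzed cyclin A (10 or 19 nM), Rb fragment substrate, 25 μM [32P/33P]ATP, HEPES pH 7.4, 30 °C for 60 or 75 min under initial-rate conditions. Filter capture and phosphorimager readout; apparent Ki fitted to competitive or tight-binding competitive inhibition.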"}, "[2]": {"target": "human CDK4 and genetically truncated (1-264) cyclin D3 (Homo sapiens, UniProt P11802)", "sequence (P11802 whole entry, the tested form may be a part)": "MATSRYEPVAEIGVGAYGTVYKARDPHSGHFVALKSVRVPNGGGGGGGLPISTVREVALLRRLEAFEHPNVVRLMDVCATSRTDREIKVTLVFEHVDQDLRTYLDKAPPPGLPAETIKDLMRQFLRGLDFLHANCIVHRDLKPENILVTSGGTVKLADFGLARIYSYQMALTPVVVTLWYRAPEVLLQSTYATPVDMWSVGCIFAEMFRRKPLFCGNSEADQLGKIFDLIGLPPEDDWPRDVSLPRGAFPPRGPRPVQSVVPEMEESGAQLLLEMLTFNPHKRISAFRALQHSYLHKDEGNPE", "sequence (P30281 1-264 partner)": "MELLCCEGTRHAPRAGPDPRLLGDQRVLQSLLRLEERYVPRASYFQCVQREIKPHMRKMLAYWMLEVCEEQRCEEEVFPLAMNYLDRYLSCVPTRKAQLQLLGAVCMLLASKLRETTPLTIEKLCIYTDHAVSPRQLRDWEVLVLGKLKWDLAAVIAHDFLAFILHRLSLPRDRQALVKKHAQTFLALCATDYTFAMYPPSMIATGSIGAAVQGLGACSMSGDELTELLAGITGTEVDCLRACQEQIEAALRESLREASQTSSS", "test": "Inhibition of CDK4/Cyclin D Retinoblastoma Kinase Activity", "assay_type": "biochemical", "conditions": "for Ki: apparent Ki, CDK4/truncated cyclin D3, Rb fragment substrate, 25 μM ATP", "procedure,_shortened": "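Human CDK4/truncated cyclin D3 (1-264) complex from baculovirus-infected insect cells, 5 nM, phosphorylating Rb fragment (residues 386-928, His-tagged) with 25 μM [32/33P]ATP in HEPES pH 7.4, MgCl2, 2% DMSO at 30° C. for 20 min (60 min for tight binders). Filter-captured radioactivity by phosphorimager; apparent Ki from competitive or tight-binding fits.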"}, "[3]": {"tested_on": "HCT-116 cell line", "test": "Inhibition of cell growth, tetrazolium salt (MTT) assay", "assay_type": "cell-based", "conditions": "for IC50: Homo sapiens, HCT-116, 120 h, MTT, three to five days, read-out: HCT-116 IC50; for HCT-116 % Inhibition at 0.25 μM: 0.25 μM compound", "procedure,_shortened": "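Growth inhibition by MTT reduction at 540 nm (0.2 mg/mL, 4 h at 37° C, formazan dissolved in DMSO), normalized to cells given only 0.5% v/v DMSO. HCT-116 cultures in McCoy's 5A were dosed 4 h post-plating and kept three to five days at 37° C, 5% CO2.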"}, "[4]": {"conditions": "0.1 μM compound, HCT-116, Table 3"}}, "note": "Where a name gives a salt, the structure may show the parent alone. Read-outs that look alike come from different tables or passages of the source."}
{"compound": "N=C(N)c1ccc(S(=O)(=O)N2CCC(Nc3nc(N)c(C(=O)c4c(F)cccc4F)s3)CC2)cc1", "note": "[Example J3, 4-(4-{4-Amino-5-[1-(2,6-difluoro-phenyl)-methanoyl]-thiazol-2-ylamino}-piperidine-1-sulfonyl)-benzamidine]", "values": [{"measurement": "Ki", "setting": "[1]", "value": "< 1", "unit": "nM"}, {"measurement": "Ki", "setting": "[2]", "value": 0.25, "unit": "nM"}, {"measurement": "IC50", "setting": "[3]; first HCT-116 column (c4)", "value": "> 5000", "unit": "nM"}, {"measurement": "IC50", "setting": "[3]; second HCT-116 column (c5)", "value": "> 5000", "unit": "nM"}]}
{"compound": "Nc1nc(NC2CCN(S(=O)(=O)c3ccc(Cl)c([N+](=O)[O-])c3)CC2)sc1C(=O)c1c(F)cccc1F", "note": "[Example P15]", "values": [{"measurement": "CDK2 % Inhibition at 0.03 μM", "setting": "[1]; 0.03 μM compound, Table 3", "value": 50, "unit": "%"}, {"measurement": "CDK4 % Inhibition at 0.03 μM", "setting": "[2]; 0.03 μM compound, Table 3", "value": 65, "unit": "%"}, {"measurement": "HCT-116 % Inhibition at 0.1 μM", "setting": "[3]; [4]", "value": 30, "unit": "%"}, {"measurement": "HCT-116 % Inhibition at 0.25 μM", "setting": "[3]; HCT-116, Table 3", "value": 34, "unit": "%"}]}
{"compound": "Cc1nn(-c2ccccc2)nc1C(=O)N1CCC(Nc2nc(N)c(C(=O)c3c(F)cccc3F)s2)CC1", "note": "[Example R24]", "values": [{"measurement": "CDK2 % Inhibition at 0.03 μM", "setting": "[1]; at 0.03 μM", "value": 20, "unit": "%"}, {"measurement": "CDK4 % Inhibition at 0.03 μM", "setting": "[2]; at 0.03 μM", "value": 49, "unit": "%"}, {"measurement": "HCT-116 % Inhibition at 0.1 μM", "setting": "[3]; HCT-116 cells, at 0.1 μM", "value": 5, "unit": "%"}, {"measurement": "HCT-116 5 Inhibition at 0.25 μM", "setting": "[3]; HCT-116 cells", "value": 39}]}
{"compound": "Nc1nc(NC2CCN(S(=O)(=O)c3ccc(Oc4ccc(I)cc4)cc3)CC2)sc1C(=O)c1c(F)cccc1F", "note": "[Example P86]", "values": [{"measurement": "CDK2 % Inhibition at 0.03 μM", "setting": "[1]; 0.03 μM compound, Table 3", "value": 38, "unit": "%"}, {"measurement": "CDK4 % Inhibition at 0.03 μM", "setting": "[2]; 0.03 μM compound, Table 3", "value": 51, "unit": "%"}, {"measurement": "HCT-116 % Inhibition at 0.1 μM", "setting": "[3]; [4]", "value": 7, "unit": "%"}, {"measurement": "HCT-116 % Inhibition at 0.25 μM", "setting": "[3]; HCT-116, Table 3", "value": 26, "unit": "%"}]}
{"compound": "CCNC(=O)N1CCC(Nc2nc(N)c(C(=O)c3c(F)cccc3F)s2)CC1", "note": "[Example O31]", "values": [{"measurement": "CDK2 % Inhibition At 0.03 μM", "setting": "[1]; 0.03 μM compound, Table 2", "value": 33, "unit": "%"}, {"measurement": "CDK4 % Inhibition at 0.03 μM", "setting": "[2]; 0.03 μM compound, Table 2", "value": 6, "unit": "%"}, {"measurement": "HCT-116 % Inhibition at 0.25 μM", "setting": "[3]; HCT-116, Table 2", "value": 37, "unit": "%"}]}
{"compound": "CN1CC[C@@H](Oc2ccc(S(=O)(=O)N3CCC(Nc4nc(N)c(C(=O)c5c(F)cccc5F)s4)CC3)cn2)C1", "note": "[Example H27, (4-Amino-2-{1-[6-(1-methyl-pyrrolidin-3R-yloxy)-pyridine-3-sulfonyl]-piperidin-4-ylamino}-thiazol-5-yl)-(2,6-difluoro-phenyl)-methanone Hydrochloride]", "values": [{"measurement": "Ki", "setting": "[1]", "value": 0.35, "unit": "nM"}, {"measurement": "Ki", "setting": "[2]", "value": 0.97, "unit": "nM"}, {"measurement": "IC50", "setting": "[3]; first HCT-116 column (c4)", "value": 80, "unit": "nM"}, {"measurement": "IC50", "setting": "[3]; second HCT-116 column (c5)", "value": 290, "unit": "nM"}]}
{"compound": "CN(C)CCN(C)c1ncc(S(=O)(=O)N2CCC(Nc3nc(N)c(C(=O)c4c(F)cccc4F)s3)CC2)cc1Br", "note": "[Example G24, 1-[4-Amino-2-(1-{5-bromo-6-[(2-dimethylamino-ethyl)-methyl-amino]-pyridine-3-sulfonyl}-piperidin-4-ylamino)-thiazol-5-yl]-1-(2,6-difluoro-phenyl)-methanone]", "values": [{"measurement": "Ki", "setting": "[1]", "value": 0.85, "unit": "nM"}, {"measurement": "Ki", "setting": "[2]", "value": 0.48, "unit": "nM"}, {"measurement": "IC50", "setting": "[3]; first HCT-116 column (c4)", "value": 290, "unit": "nM"}, {"measurement": "IC50", "setting": "[3]; second HCT-116 column (c5)", "value": 620, "unit": "nM"}]}
{"compound": "CN1CCN(S(=O)(=O)N2CCC(Nc3nc(N)c(C(=O)c4c(F)cccc4F)s3)CC2)CC1", "note": "[Example E3, {4-Amino-2-[1-(4-methyl-piperazine-1-sulfonyl)-piperidin-4-ylamino]-thiazol-5-yl}-(2,6-difluoro-phenyl)-methanone]", "values": [{"measurement": "Ki", "setting": "[1]", "value": 12, "unit": "nM"}, {"measurement": "Ki", "setting": "[2]", "value": 5.4, "unit": "nM"}, {"measurement": "IC50", "setting": "[3]; first HCT-116 column (c4)", "value": 330, "unit": "nM"}, {"measurement": "IC50", "setting": "[3]; second HCT-116 column (c5)", "value": 780, "unit": "nM"}]}
{"compound": "Cc1ncc(-c2ccc(S(=O)(=O)N3CCC(Nc4nc(N)c(C(=O)c5c(F)cccc5F)s4)CC3)cc2)[nH]1", "note": "[Example F33, 1-(4-Amino-2-{1-[4-(2-methyl-1H-imidazol-4-yl)-benzenesulfonyl]-piperidin-4-ylamino}-thiazol-5-yl)-1-(2,6-difluoro-phenyl)-methanone Dihydrochloride]", "values": [{"measurement": "Ki", "setting": "[1]", "value": 0.28, "unit": "nM"}, {"measurement": "Ki", "setting": "[2]", "value": 0.28, "unit": "nM"}, {"measurement": "IC50", "setting": "[3]; first HCT-116 column (c4)", "value": 160, "unit": "nM"}, {"measurement": "IC50", "setting": "[3]; second HCT-116 column (c5)", "value": 1600, "unit": "nM"}]}
{"compound": "CCC(Oc1ccccc1)C(=O)N1CCC(Nc2nc(N)c(C(=O)c3c(F)cccc3F)s2)CC1", "note": "(stereo not shown) [Example R162]", "values": [{"measurement": "CDK2 % Inhibition at 0.03 μM", "setting": "[1]; at 0.03 μM", "value": 27, "unit": "%"}, {"measurement": "CDK4 % Inhibition at 0.03 μM", "setting": "[2]; at 0.03 μM", "value": 32, "unit": "%"}, {"measurement": "HCT-116 % Inhibition at 0.1 μM", "setting": "[3]; HCT-116 cells, at 0.1 μM", "value": 0, "unit": "%"}, {"measurement": "HCT-116 5 Inhibition at 0.25 μM", "setting": "[3]; HCT-116 cells", "value": 34}]}
{"compound": "CCOC(=O)CCC(=O)N1CCC(Nc2nc(N)c(C(=O)c3c(F)cccc3F)s2)CC1", "note": "[Example Q50]", "values": [{"measurement": "CDK2 % Inhibition at 0.03 μM", "setting": "[1]; 0.03 μM compound, Table 4", "value": 24, "unit": "%"}, {"measurement": "CDK4 % Inhibition at 0.03 μM", "setting": "[2]; 0.03 μM compound, Table 4", "value": 42, "unit": "%"}, {"measurement": "HCT-116 % Inhibition at 0.1 μM", "setting": "[3]; 0.1 μM compound, HCT-116, Table 4", "value": 7, "unit": "%"}, {"measurement": "HCT-116 % Inhibition at 0.25 μM", "setting": "[3]; HCT-116, Table 4", "value": 39, "unit": "%"}]}
{"compound": "Nc1nc(NC2CCN(S(=O)(=O)c3ccc(C(F)(F)F)cc3)CC2)sc1C(=O)c1c(F)cccc1F", "note": "[Example P33]", "values": [{"measurement": "CDK2 % Inhibition at 0.03 μM", "setting": "[1]; 0.03 μM compound, Table 3", "value": 56, "unit": "%"}, {"measurement": "CDK4 % Inhibition at 0.03 μM", "setting": "[2]; 0.03 μM compound, Table 3", "value": 59, "unit": "%"}, {"measurement": "HCT-116 % Inhibition at 0.1 μM", "setting": "[3]; [4]", "value": 6, "unit": "%"}, {"measurement": "HCT-116 % Inhibition at 0.25 μM", "setting": "[3]; HCT-116, Table 3", "value": 32, "unit": "%"}]}
{"compound": "Nc1nc(NC2CCN(C(=O)c3cc(Cl)ccc3Cl)CC2)sc1C(=O)c1c(F)cccc1F", "note": "[Example R108]", "values": [{"measurement": "CDK2 % Inhibition at 0.03 μM", "setting": "[1]; at 0.03 μM", "value": 56, "unit": "%"}, {"measurement": "CDK4 % Inhibition at 0.03 μM", "setting": "[2]; at 0.03 μM", "value": 72, "unit": "%"}, {"measurement": "HCT-116 % Inhibition at 0.1 μM", "setting": "[3]; HCT-116 cells, at 0.1 μM", "value": 5, "unit": "%"}, {"measurement": "HCT-116 5 Inhibition at 0.25 μM", "setting": "[3]; HCT-116 cells", "value": 58}]}
{"compound": "Nc1nc(NC2CCN(C(=O)C3(c4ccccc4)CCCC3)CC2)sc1C(=O)c1c(F)cccc1F", "note": "[Example R95]", "values": [{"measurement": "CDK2 % Inhibition at 0.03 μM", "setting": "[1]; at 0.03 μM", "value": "−13", "unit": "%"}, {"measurement": "CDK4 % Inhibition at 0.03 μM", "setting": "[2]; at 0.03 μM", "value": "−27", "unit": "%"}, {"measurement": "HCT-116 % Inhibition at 0.1 μM", "setting": "[3]; HCT-116 cells, at 0.1 μM", "value": 0, "unit": "%"}, {"measurement": "HCT-116 5 Inhibition at 0.25 μM", "setting": "[3]; HCT-116 cells", "value": 38}]}
